The source of these data is patent US20260374739A1, “SMALL MOLECULAR WEIGHT CHEMICAL COMPOUND TO ANTAGONIZE EPH-EPHRIN TETRAMERIZATION AND INHIBIT BIDIRECTIONAL SIGNALING” (THE BOARD OF REGENTS OF THE UNIVERSITY OF TEXAS SYSTEM, priority 2022, published 2026).

Several values for one entry are separate records, joined by “and”; a condition that tells them apart may be missing. Identical values can stand only once. Like-named read-outs stand apart in the source and are kept apart here.

The target in one assay is T1, EphB4-EphrinB2 (Mus musculus, UniProt P54761).
T1 construct: biosensor immobilized rodent EphB1-Fc and EphB4-Fc ectodomain proteins; mouse EB2-His residues 18-232; purchased R&D Systems (EphB-Fc); Sino Biologicals (EphrinB-His)
T1 sequence (P54761 16-539 limits assumed): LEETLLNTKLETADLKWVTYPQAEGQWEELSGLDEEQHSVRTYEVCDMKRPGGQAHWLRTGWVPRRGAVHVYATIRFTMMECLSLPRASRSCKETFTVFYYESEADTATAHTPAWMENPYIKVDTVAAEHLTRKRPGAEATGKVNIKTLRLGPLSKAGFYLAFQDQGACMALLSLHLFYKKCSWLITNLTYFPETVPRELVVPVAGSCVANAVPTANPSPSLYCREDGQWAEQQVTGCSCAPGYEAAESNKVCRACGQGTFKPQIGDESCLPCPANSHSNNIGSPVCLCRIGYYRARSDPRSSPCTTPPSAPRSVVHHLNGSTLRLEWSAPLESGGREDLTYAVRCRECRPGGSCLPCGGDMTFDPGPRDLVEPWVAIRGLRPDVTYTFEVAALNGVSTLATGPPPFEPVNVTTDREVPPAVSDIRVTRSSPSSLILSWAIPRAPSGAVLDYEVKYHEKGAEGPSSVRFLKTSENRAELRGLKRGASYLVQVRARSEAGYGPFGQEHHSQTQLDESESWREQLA
Kind of assay: Octet RED384, immobilized mouse EphB4-Fc binding to mouse EB2-His. The method, then: […] Association time was for 400 sec and dissociation time was for 500 sec. Binding assays were conducted in PBS containing 0.05% Tween-20 and 1% DMSO.
(Biolayer interferometry detects binding as a change in optical thickness at a sensor tip.)

For the next assay, the target named is T2, EphA3-EphrinA5 (Homo sapiens, UniProt P29320).
T2 sequence (P29320 21-541 limits assumed): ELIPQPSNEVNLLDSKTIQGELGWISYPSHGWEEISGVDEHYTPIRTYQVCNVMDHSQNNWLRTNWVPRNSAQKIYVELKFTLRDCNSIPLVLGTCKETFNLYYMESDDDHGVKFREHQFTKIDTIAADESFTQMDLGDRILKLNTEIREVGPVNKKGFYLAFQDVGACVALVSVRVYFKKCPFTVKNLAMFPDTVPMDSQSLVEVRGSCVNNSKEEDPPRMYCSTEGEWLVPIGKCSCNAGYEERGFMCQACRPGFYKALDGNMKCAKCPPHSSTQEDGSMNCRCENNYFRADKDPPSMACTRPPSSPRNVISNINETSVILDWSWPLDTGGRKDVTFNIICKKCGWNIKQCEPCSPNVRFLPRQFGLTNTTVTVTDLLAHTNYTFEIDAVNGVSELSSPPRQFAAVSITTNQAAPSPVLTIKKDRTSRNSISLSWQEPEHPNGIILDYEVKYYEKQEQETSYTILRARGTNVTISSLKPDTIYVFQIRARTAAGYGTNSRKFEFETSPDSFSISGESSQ
Kind of assay: Octet, immobilized human EphA3 binding to human EphrinA5. As to the method: The Octet system was used to probe the interactions of epitope-tagged human A class proteins, focusing on immobilized EphA3 binding to two of its cognate ligands, EphrinA1 and EphrinA5, as well as EphB2 binding to EphrinA5 (FIG. 27). […] Focusing on the dimerization-driven EphA3-EA5 interaction first (green sensorgram trace), which mimics what is disclosed above for EphB4-EB2, the initial binding of soluble EphrinA5 to the immobilized EphA3 is very fast and strong with a long and steep 84° slope of response that then quickly bends around 35 sec into the association step to form a more gradual tetramerization accumulation slope. […] However, again like the EphB4-EB2 interaction, once placed into dissociation, a significant fraction of the bound EA5 protein melts quickly and the off phase continues downward with a slow gradual decline in bound protein. Although the dissociation was for only 500 sec, the continued downward slope of the response indicates most of the bound EA5 protein would eventually melt off of the immobilized EphA3 protein. This is referred to as a classic dimerization-driven interaction, fast and strong initial binding in the association step but with most of the bound protein coming off in the dissociation due to lack of formation of stable tetramers. EphA3 interacts with EphrinA1 with totally different kinetics/dynamics (orange sensorgram trace). Here, the initial high 84° dimerization slope phase is extremely brief (5 sec) with the binding quickly snapping into a linear tetramerization accumulation phase with a 25° slope, and that once placed into dissociation step almost no bound protein melts, just the small amount that would represent dimer interactions falling off in the first few seconds after being placed into dissociation. […] EphB2 interacting with EA5 is similar to the EphA3-EA1 interaction, in that the association step is characterized by a very brief (5 sec) high 84° slope phase that quickly bends into a more gradual tetramer accumulation phase (blue sensorgram trace). […] The strong initial off phase of the EphB2-EA5 complexes in the dissociation represents both the melting of weak dimers and of the relatively weaker affinity tetramers formed by the cross A/B class EphB2-EA5 molecules.
While there is no effect of A20 on the initial 5 sec fast EphA3-EA1 dimer phase, there is a very strong effect of compound on tetramer accumulation. It was estimated that >70% of the EphA3-EA1 binding interaction can be attributed to the tetramer which is effectively disrupted by compound, with very little binding activity attributed to the dimer and more accurately the dimerization:tetramerization ratio of this interaction is 10:90 not 30:70. […] Since this is a dimerization-driven type interaction (dimerization:tetramerization ratio of here is 72:28), the overall effect of compound on this interaction is muted.

[1] abbreviates: mEphB4-mEphrinB2, immobilized mouse EphB4, 50 nM soluble mouse EphrinB2, association, absolute, read-out: Absolute Association IC50.
Where [2] appears, read: mEphB4-mEphrinB2, immobilized mouse EphB4, 50 nM soluble mouse EphrinB2, association, relative, read-out: Relative Association IC50.
Where [3] appears, read: mEphB4-mEphrinB2, immobilized mouse EphB4, 50 nM soluble mouse EphrinB2, dissociation, absolute, read-out: Absolute Dissociation IC50.
Setting [4] is: Human EphA3-EphrinA5, immobilized human EphA3, 50 nM soluble human EphrinA5, association, absolute, read-out: Absolute Association IC50.
The mark [5] stands for this setting: Human EphA3-EphrinA5, immobilized human EphA3, 50 nM soluble human EphrinA5, association, relative, read-out: Relative Association IC50.
Where [6] appears, read: Human EphA3-EphrinA5, immobilized human EphA3, 50 nM soluble human EphrinA5, dissociation, relative, read-out: Relative Dissociation IC50.
[7] abbreviates: mEphB4-mEphrinB2, immobilized mouse EphB4, 50 nM soluble mouse EphrinB2, dissociation, relative, read-out: Relative Dissociation IC50.
[8] abbreviates: Human EphA3-EphrinA5, immobilized human EphA3, 50 nM soluble human EphrinA5, dissociation, absolute, read-out: Absolute Dissociation IC50.

What is called IC50 is the concentration needed to halve the response being measured.

Turning to `Oc1ccc(CN2CCOCC2)c2cccnc12` [Compound 1, 5-(morpholinomethyl)quinolin-8-ol], the IC50 at EphB4-EphrinB2 (setting [1]) is 100000 nM; on EphB4-EphrinB2 (setting [2]), 100000 nM; at EphB4-EphrinB2 (setting [3]) it was 100000 nM; on EphA3-EphrinA5, 3220 nM; at EphA3-EphrinA5 (setting [4]), 100000 nM; at EphA3-EphrinA5 (setting [5]) it was less than 1000 nM. Besides, the IC50 at EphA3-EphrinA5 (setting [6]) is 1240 nM.

Turning to `Oc1c(Cl)cc(CN2CCOCC2)c2cccnc12` [Compound 4, 4-((7-chloro-8-hydroxyquinolin-1-ium-5-yl)methyl)morpholin-4-ium chloride], the IC50 at EphB4-EphrinB2 (setting [1]) was more than 10000 nM; at EphB4-EphrinB2 (setting [2]), 3190 nM; on EphB4-EphrinB2 (setting [3]) it was 840 nM; on EphB4-EphrinB2 (setting [7]) it was 530 nM; at EphA3-EphrinA5 it was 540 nM; on EphA3-EphrinA5 (setting [4]) it was 12900 nM. Also, the IC50 at EphA3-EphrinA5 (setting [5]) was 1000 nM; at EphA3-EphrinA5 (setting [8]) it was 620 nM.

As for `Oc1c(Br)cc(CN2CCOCC2)c2cccnc12` [Compound 5, 7-bromo-5-(morpholinomethyl)quinolin-8-ol], the IC50 on EphB4-EphrinB2 (EphB4-EB2, read-out: area under the curve IC50) is more than 100000 nM. In addition, at EphA3-EphrinA5 (1 μM), the “loss of tetramer accumulation” value is on record as “striking maximized loss of tetramer accumulation”.

On to `Oc1c(Br)cc(CN2CCOCC2)c2cccnc12` [Compound 6, 4-((7-bromo-8-hydroxyquinolin-1-ium-5-yl)methyl)morpholin-4-ium chloride], for which the half-inhibitory concentration (IC50) on EphB4-EphrinB2 (setting [1]) came out at 100000 nM; at EphB4-EphrinB2 (setting [2]), 220 nM; at EphB4-EphrinB2 (setting [3]), 410 nM; at EphB4-EphrinB2 (setting [7]), 220 nM; at EphA3-EphrinA5, 370 nM; at EphA3-EphrinA5 (setting [4]) it was 100000 nM. Further, the IC50 on EphA3-EphrinA5 (setting [5]) and on EphA3-EphrinA5 (setting [8]) was 520 nM throughout.

As for `Oc1c(I)cc(CN2CCOCC2)c2cccnc12` [Compound 8, 4-((8-hydroxy-7-iodoquinolin-1-ium-5-yl)methyl)morpholin-4-ium chloride], the 50% inhibitory concentration (IC50) was > 1600 nM and 100000 nM on EphB4-EphrinB2 (setting [1]); 510 nM and 340 nM at EphB4-EphrinB2 (setting [2]); 650 nM and 680 nM at EphB4-EphrinB2 (setting [3]); 530 nM on EphB4-EphrinB2 (setting [7]); 360 nM at EphA3-EphrinA5; more than 1600 nM at EphA3-EphrinA5 (setting [4]). Further, the IC50 stood at 500 nM on EphA3-EphrinA5 (setting [5]) and 480 nM at EphA3-EphrinA5 (setting [8]).

Take `O=[N+]([O-])c1cc(CN2CCOCC2)c2cccnc2c1O` [Compound 10, 4-((8-hydroxy-7-nitroquinolin-1-ium-5-yl)methyl)morpholin-4-ium chloride]: the IC50 on EphB4-EphrinB2 (setting [1]) was 100000 nM; on EphB4-EphrinB2 (setting [2]), 6380 nM; on EphB4-EphrinB2 (setting [3]), 2630 nM; on EphB4-EphrinB2 (setting [7]), 2380 nM; at EphA3-EphrinA5 it was 4480 nM; on EphA3-EphrinA5 (setting [4]) it was 100000 nM. Also, the IC50 on EphA3-EphrinA5 (setting [5]) came out at 2490 nM; at EphA3-EphrinA5 (setting [6]) it was 790 nM.

`O=S1(=O)CCN(Cc2ccc(O)c3ncccc23)CC1` [Compound 15, 4-((8-hydroxyquinolin-1-ium-5-yl)methyl)thiomorpholin-4-ium 1,1-dioxide chloride]: the IC50 is 100000 nM on EphB4-EphrinB2 (setting [1]); more than 10000 nM at EphB4-EphrinB2 (setting [2]); 13200 nM on EphB4-EphrinB2 (setting [3]); 630 nM at EphB4-EphrinB2 (setting [7]); 2100 nM on EphA3-EphrinA5; 100000 nM on EphA3-EphrinA5 (setting [4]). The IC50 on EphA3-EphrinA5 (setting [5]) is more than 1000 nM; at EphA3-EphrinA5 (setting [6]), less than 1000 nM.

`Oc1ccc(CN2CCN(Cc3ccc(C(F)(F)F)cc3)CC2)c2cccnc12` [Compound 48, 5-((4-(4-(trifluoromethyl)benzyl)piperazin-1-yl)methyl)quinolin-8-ol]: the IC50 on EphB4-EphrinB2 (setting [2]) came out at 8240 nM; on EphB4-EphrinB2 (setting [7]) it was 1890 nM; on EphA3-EphrinA5, 4330 nM; at EphA3-EphrinA5 (setting [4]), 100000 nM; on EphA3-EphrinA5 (setting [5]), 3250 nM; on EphA3-EphrinA5 (setting [8]) it was 6240 nM.
